These results are taken from patent publication US9782399B2, “Pharmaceutical compositions which inhibit FKBP52-mediated regulation of androgen receptor function and methods of using same” (The United States of America, as represented by the …, priority 2009, dated 2017).

Common to all, as to type: cell-based
One test has as its system PSA protein. Kind of test: PSA protein expression in LNCaP cells (Western blotting). The conditions noted are these: 100 μM, about 48 hours, R1881 0.5 nM. The protocol:
The amount of PSA protein expression levels was measured in cells from the prostate cancer cell line LNCaP, after treatment with either control, or about 1 to 100 μM of each of the four FTA compounds identified in the screen (Compounds 1-4). The protein was quantified by an immunohistochemical method using photodetection.
LNCaP cells were maintained in RPMI-1640 medium containing 10% fetal bovine serum. Forty eight hours prior to the experiment, cells were washed several times in serum-free medium and then cultured in RPMI-1640 medium containing 10% charcoal-stripped fetal bovine serum (to remove endogenous androgens). After 48 hours in this medium, Compound 2 was added in a range of concentrations (0, 3, 10, 30, and 100 μM) for 24 hours, at which time the synthetic androgen, methyltrienolone (R1881), (Sigma, St. Louis, Mo.) was added (0.5 nM). After an additional 48 hours, cells were lysed as described in Yano A., et al., Proc. Natl. Acad. Sci. USA, 105:15541-46 (2008), and PSA protein was monitored by polyacrylamide gel electrophoresis and Western blotting with an anti-PSA antibody (sc-80304, Santa Cruz Biotechnology).
A general note: In western blotting, separated proteins are transferred to a membrane and probed.

A further test has as its system PSA mRNA. Kind of test: PSA mRNA quantitation in LNCaP cells (RT-PCR). The following applies: 100 μM, 24 hours, R1881. Here is the method:
For PSA mRNA determination, cells were cultured and treated identically, except that lysis for mRNA extraction was performed 24 hours after addition of R1881. Total RNA was isolated using protocols and reagents contained in the Qiagen RNeasy Kit (Valencia, Calif.). TaqMan real-time quantitative RT-PCR analysis of PSA was performed using previously described techniques Hong J A, et al., Cancer Res., 65:7763-74 (2005); Guo F, et al., Cancer Res., 65:10536-44 (2005). The amount of PSA mRNA level and total protein in cells from the prostate cancer cell line LNCaP was measured after treatment with either control, or about 1 to 100 μM of each of the four compounds identified in the screen (Compounds 1-4). It was known that the expression of PSA mRNA in LNCaP cells is driven by an androgen receptor mediated pathway. The mRNA is quantified by a photodetection method over time. […] At 100 μM, mRNA expression was decreased to 40% of control levels.

For another test, the target named is T1, AR (Homo sapiens, UniProt P10275, T878A).
T1 construct: endogenous in cells; host or cells: LNCaP
T1 sequence (P10275 1-920 T878A): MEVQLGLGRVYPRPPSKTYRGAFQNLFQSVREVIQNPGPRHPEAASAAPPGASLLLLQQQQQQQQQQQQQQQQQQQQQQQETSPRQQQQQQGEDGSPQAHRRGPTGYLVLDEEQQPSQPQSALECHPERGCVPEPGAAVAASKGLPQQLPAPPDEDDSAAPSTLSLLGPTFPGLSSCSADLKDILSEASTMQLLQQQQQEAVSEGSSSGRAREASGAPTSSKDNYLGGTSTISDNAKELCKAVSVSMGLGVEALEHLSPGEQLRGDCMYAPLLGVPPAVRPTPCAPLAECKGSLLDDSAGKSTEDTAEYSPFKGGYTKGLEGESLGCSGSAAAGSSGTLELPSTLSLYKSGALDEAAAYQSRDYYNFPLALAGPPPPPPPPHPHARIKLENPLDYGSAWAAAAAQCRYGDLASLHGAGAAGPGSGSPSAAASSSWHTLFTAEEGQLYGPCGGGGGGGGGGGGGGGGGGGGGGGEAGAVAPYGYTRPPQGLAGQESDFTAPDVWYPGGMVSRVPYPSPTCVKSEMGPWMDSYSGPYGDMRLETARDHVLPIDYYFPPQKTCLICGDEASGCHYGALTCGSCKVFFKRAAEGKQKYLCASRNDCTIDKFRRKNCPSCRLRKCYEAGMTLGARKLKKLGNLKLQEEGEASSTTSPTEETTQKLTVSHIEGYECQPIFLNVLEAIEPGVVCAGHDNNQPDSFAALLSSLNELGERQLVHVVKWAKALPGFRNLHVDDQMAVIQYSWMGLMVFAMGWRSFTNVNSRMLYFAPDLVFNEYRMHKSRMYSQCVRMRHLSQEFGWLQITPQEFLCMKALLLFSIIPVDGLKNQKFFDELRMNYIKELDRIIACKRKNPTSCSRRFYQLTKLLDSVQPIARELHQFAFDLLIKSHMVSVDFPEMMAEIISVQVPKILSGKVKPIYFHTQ
In words: AR nuclear translocation in LNCaP cells. The following applies: about 30 μM pre-treatment 24 hours, R1881 0.1 nM 2 hours. The protocol:
LNCaP cells were maintained as above. At 50% confluence, cells were washed several times in serum-free RPMI-1640 medium, and re-cultured for 48 hours in RPMI-1640 medium containing 10% charcoal-stripped fetal bovine serum. At that time, compound 2 (termed 21D1C in FIG. 7) was added to a final concentration of about 30 μM. After an additional 24 hours, R1881 was added (0.1 nM) and cells were cultured for an additional 2 hours. At that time, cells were lysed and separated into nuclear and cytosolic fractions following published methods (Schreiber, et al., Nucleic Acids Res., 17:6419 (1989)). Quantification of AR in nucleus and cytosol was performed by Western blotting with an AR-specific antibody following polyacrylamide gel electrophoresis.

As for `O=C(Nc1cccc(Cl)c1Cl)C1CCCCC1` [Compound 2], the “PSA protein expression (printed as mRNA expression)” value in the test on PSA protein was 20 % of control levels. The “PSA mRNA expression” value with PSA mRNA is recorded as 40 % of control levels. The “ligand-dependent nuclear translocation of AR” value on AR is given as “significantly prevented”.
